Assay results as given in patent US6462039B1, “Fungicidal benzoheterocyclyloxime” (Bayer Aktiengesellschaft, priority 1998, dated 2002).
Where two headings read alike, the source gives them in different places.

Legend:
[1] = test system: Erysiphe graminis f.sp. hordei; assay: Erysiphe test (barley)/curative; assay type: in vivo; conditions: curative (sprayed 48 hours after inoculation), application rate 250 g/ha, evaluation 7 days after inoculation
Protocol: (§1) Erysiphe Test (Barley)/Curative Solvent: 25 parts by weight of N,N-dimethylacetamide Emulsifier: 0.6 part of weight of alkylaryl polyglycol ether To produce a suitable preparation of active compound 1 part by weight of active compound is mixed with the stated amounts of solvent and emulsifier and the concentrate is diluted with water to the desired concentration. To test for curative activity, young plants are dusted with spores of Erysiphe graminis f.sp. hordei. 48 hours after the inoculation, the plants are sprayed with the preparation of active compound at the stated application rate. The plants are placed in a greenhouse at a temperature of approximately 20° C. and a relative atmospheric humidity of approximately 80% to promote the development of mildew pustules.

Puccinia recondita = assay: Puccinia test (wheat)/protective; assay type: in vivo; conditions: protective, application rate 250 g/ha, evaluation 10 days after inoculation
Protocol: Puccinia Test (Wheat)/Protective Solvent: 25 parts by weight of N,N-dimethylacetamide Emulsifier: 0.6 part by weight of alkylaryl polyglycol ether […] To test for protective activity, young plants are sprayed with the preparation of active compound at the stated application rate. After the spray coating has dried on, the plants are dusted with a conidia suspension of Puccinia recondita. […] The plants are then placed in a greenhouse at a temperature of approximately 20° C. and a relative atmospheric humidity of 80% to promote the development of rust pustules.

[2] = test system: Fusarium nivale (var. nivale); assay: Fusarium nivale (var. nivale) test (wheat)/protective; assay type: in vivo; conditions: protective, application rate 250 g/ha, evaluation 4 days after inoculation
Source text: Fusarium Nivale (Var. Nivale) Test (Wheat)/Protective Solvent: 25 parts by weight of N,N-dimethylacetamide Emulsifier: 0.6 part by weight of alkylaryl polyglycol ether […] To test for protective activity, young plants are sprayed with the preparation of active compound at the stated application rate. After the spray coating has dried on, the plants are sprayed with a conidia suspension of Fusarium nivale (var. nivale).

[3] = test system: Erysiphe graminis f.sp. hordei; assay: Erysiphe test (barley)/protective; assay type: in vivo; conditions: protective, application rate 250 g/ha, evaluation 7 days after inoculation
Protocol: as §1, with “Test (Barley)/Protective” for “Test (Barley)/Curative”, “part by” for “part of”, “for protective” for “for curative”, “young” for “young plants are dusted with spores of Erysiphe graminis f.sp. hordei. 48 hours after the inoculation, the”, “rate. After the spray coating has dried on, the plants are dusted with spores of Erysiphe graminis f.sp. hordei.” for “rate.”

Protocol for physchem: The logP values were determined in accordance with EEC Directive 79/831 Annex V. A8 by HPLC (gradient method, acetonitrile/0.1% aqueous phosphoric acid)

Structure (SMILES): CCn1nc(/C(C)=N\O)c2ccccc21 [(II-a-2)]
- chromatographic logP (physchem): 2.13

Structure (SMILES): CCCn1nc(/C(C)=N\O)c2ccccc21 [(II-a-3)]
- chromatographic logP (physchem): 2.55

Structure (SMILES): C=CCn1nc(/C(C)=N\O)c2ccccc21 [(II-a-4)]
- chromatographic logP (physchem): 2.28

Structure (SMILES): C/C(=N/O)c1nn(C(C)C)c2ccccc12 [(II-a-5)]
- chromatographic logP (physchem): 2.72

Structure (SMILES): COc1ccc2c(/C(C)=N\O)nn(C)c2c1 [(II-a-6)]
- chromatographic logP (physchem): 1.76

Structure (SMILES): C/C(=N/O)c1cn(C(F)F)c2ccccc12 [(II-a-7)]
- chromatographic logP (physchem): 2.25

Structure (SMILES): CCn1cc(C(C)=O)c2ccccc21 [(V-2)]
- chromatographic logP: 2.35

Structure (SMILES): CCCn1nc(C(C)=O)c2ccccc21 [(V-3)]
- chromatographic logP: 2.81

Structure (SMILES): C=CCn1nc(C(C)=O)c2ccccc21 [(V-4)]
- chromatographic logP: 2.53

Structure (SMILES): CC(=O)c1nn(C(C)C)c2ccccc12 [(V-5)]
- chromatographic logP: 2.98

Structure (SMILES): COc1ccc2c(C(C)=O)nn(C)c2c1 [(V-6)]
- chromatographic logP (physchem): 1.99

Structure (SMILES): CC(=O)c1cn(C(F)F)c2ccccc12 [(V-7)]
- chromatographic logP: 2.22

Structure (SMILES): CO/N=C(/C1=NOCCO1)c1ccccc1CO/N=C(\C)c1nn(C)c2ccccc12 [Example 1, O-{2-[(5,6-dihydro-[1,4,2]dioxazin-3-yl)-methoxyiminomethyl]-benzyl}1-(1-methyl-1H-indazol-3-yl)-ethanone-oxime]
- efficacy [1]: 100%
- efficacy (Puccinia recondita): 100%
- efficacy [2]: 100%
- efficacy [3]: 100%

Structure (SMILES): CC(=O)c1nn(C(F)F)c2ccccc12 [Example (V-1), 1-(1-difluoromethyl-1H-indazol-3-yl)-ethanone]
- chromatographic logP: 2.67
